Key:
Assay type in all cases: in vivo
[1] = test system: sedge, umbrella (small-flower umbrella sedge, Cyperus difformis); assay: Test B flooded paddy test, visual plant response rating 0-100; conditions: 250 g ai/ha, Flood, applied to paddy water, evaluated after 13 days
Outline: (§1)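 Paddy-water application: test compounds went directly into water flooded 3 cm above the soil surface, with plants at 2 leaves. After a 13-day greenhouse period, responses were judged by eye relative to controls; a dash marks an untested entry.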

[2] = test system: ducksalad (Heteranthera limosa); assay: as above; conditions: 250 g ai/ha, Flood, applied to paddy water, evaluated after 13 days
Outline: as §1

[3] = test system: barnyardgrass (Echinochloa crusgalli); assay: as above; conditions: 250 g ai/ha, Flood, applied to paddy water, evaluated after 13 days
Outline: as §1

[4] = test system: rice (Oryza sativa); assay: as above; conditions: 250 g ai/ha, Flood, applied to paddy water, evaluated after 13 days
Outline: as §1

[5] = test system: blackgrass (Alopecurus myosuroides); assay: Test A preemergence soil spray, visual injury rating 0-100; conditions: 10 days
Description: (§2) Seeds of plant species selected from barnyardgrass (Echinochloa crus-galli), blackgrass (Alopecurus myosuroides), corn (Zea mays), foxtail, giant (giant foxtail, Setaria faberi), green foxtail (Setaria viridis), goosegrass (Eleusine indica), kochia (Bassia scoparia), oat, wild (wild oat, Avena fatua), palmer (palmer amaranth, palmer pigweed, Amaranthus palmeri), ragweed (common ragweed, Ambrosia artemisiifolia), ryegrass, Italian (italian ryegrass, Lolium multiflorum), soybean (Glycine max) and wheat (Triticum aestivum) were planted into a blend of loam soil and sand and treated preemergence with a directed soil spray using test chemicals formulated in a non-phytotoxic solvent mixture which included a surfactant.
(§3) At the same time, plants selected from these crops and weed species and also galium (catchweed bedstraw, Galium aparine) and horseweed (Erigeron canadensis) were planted in pots containing the same blend of loam soil and sand and treated with postemergence applications of test chemicals formulated in the same manner. Plants ranged in height from 2 to 10 cm and were in the one- to two-leaf stage for the postemergence treatment. Treated plants and untreated controls were maintained in a greenhouse for 10 days, after which time all treated plants were compared to untreated controls and visually evaluated for injury. Plant response ratings, summarized in Table A, are based on a 0 to 100 scale where 0 is no effect and 100 is complete control. A dash (-) response means no test result.

[6] = test system: ryegrass, Italian (italian ryegrass, Lolium multiflorum); assay: as above; conditions: 10 days
Description: as §2, §3

[7] = test system: kochia (Bassia scoparia); assay: as above; conditions: 10 days
Description: as §2, §3

[8] = test system: ragweed (common ragweed, Ambrosia artemisiifolia); assay: as above; conditions: 10 days
Description: as §2, §3

[9] = test system: palmer (palmer amaranth, palmer pigweed, Amaranthus palmeri); assay: as above; conditions: 10 days
Description: as §2, §3

[10] = test system: soybean (Glycine max); assay: as above; conditions: 10 days
Description: as §2, §3

[11] = test system: barnyardgrass (Echinochloa crus-galli); assay: as above; conditions: 10 days
Description: as §2, §3

[12] = test system: corn (Zea mays); assay: as above; conditions: 10 days
Description: as §2, §3

[13] = test system: green foxtail (Setaria viridis); assay: as above; conditions: 10 days
Description: as §2, §3

[14] = test system: oat, wild (wild oat, Avena fatua); assay: as above; conditions: 10 days
Description: as §2, §3

[15] = test system: wheat (Triticum aestivum); assay: as above; conditions: 10 days
Description: as §2, §3

[16] = test system: blackgrass (Alopecurus myosuroides); assay: Test A postemergence application, visual injury rating 0-100
Description: as §2, §3

[17] = test system: ryegrass, Italian (italian ryegrass, Lolium multiflorum); assay: as above
Description: as §2, §3

[18] = test system: kochia (Bassia scoparia); assay: as above
Description: as §2, §3

[19] = test system: ragweed (common ragweed, Ambrosia artemisiifolia); assay: as above
Description: as §2, §3

[20] = test system: palmer (palmer amaranth, palmer pigweed, Amaranthus palmeri); assay: as above
Description: as §2, §3

[21] = test system: soybean (Glycine max); assay: as above
Description: as §2, §3

[22] = test system: barnyardgrass (Echinochloa crus-galli); assay: as above
Description: as §2, §3

[23] = test system: corn (Zea mays); assay: as above
Description: as §2, §3

[24] = test system: green foxtail (Setaria viridis); assay: as above
Description: as §2, §3

[25] = test system: horseweed (Erigeron canadensis); assay: as above
Description: as §2, §3

[26] = test system: oat, wild (wild oat, Avena fatua); assay: as above
Description: as §2, §3

[27] = test system: wheat (Triticum aestivum); assay: as above
Description: as §2, §3

[28] = 62 g ai/ha, 0 = no effect, 100 = complete control
[29] = 62 g ai/ha, postemergence, 10 days, 0 = no effect, 100 = complete control
[30] = Postemergence, 16 g ai/ha, greenhouse 10 days, 0 no effect, 100 complete control

SMILES: CC1(C(=O)NC2CC=C(C(=O)O)C2)CN(c2cc(F)cc(Cl)c2)C(=O)O1 (centres unmarked) [Compound 159]
- Plant response rating, Sedge, Umbrella (0 to 100 scale, 0 is no effect and 100 is complete control) [1]: 100
- Plant response rating, Ducksalad (0 to 100 scale, 0 is no effect and 100 is complete control) [2]: 100
- Plant response rating, Barnyardgrass (0 to 100 scale, 0 is no effect and 100 is complete control) [3]: 95
- Plant response rating, Rice (0 to 100 scale, 0 is no effect and 100 is complete control) [4]: 55
- Blackgrass plant response rating ([5]; 16 g ai/ha, 0 to 100 scale): 0
- Blackgrass plant response rating (0-100) [5, 28]: 0
- Ryegrass, Italian plant response rating ([6]; 16 g ai/ha, 0 to 100 scale): 30
- Ryegrass, Italian plant response rating (0-100) [6, 28]: 90
- Kochia plant response rating ([7]; 16 g ai/ha, 0 to 100 scale): 0
- Kochia plant response rating (0-100) [7, 28]: 90
- Ragweed plant response rating ([8]; 16 g ai/ha, 0 to 100 scale): 0
- Ragweed plant response rating (0-100) [8, 28]: 0
- Pigweed, Palmer plant response rating ([9]; 16 g ai/ha, 0 to 100 scale): 30
- Pigweed, Palmer plant response rating (0-100) [9, 28]: 100
- Soybean plant response rating ([10]; 16 g ai/ha, 0 to 100 scale): 0
- Soybean plant response rating (0-100) [10, 28]: 50
- Barnyardgrass plant response rating ([11]; 16 g ai/ha, 0 to 100 scale): 0
- Barnyardgrass plant response rating (0-100) [11, 28]: 80
- Corn plant response rating ([12]; 16 g ai/ha, 0 to 100 scale): 20
- Corn plant response rating (0-100) [12, 28]: 50
- Foxtail, Green plant response rating ([13]; 16 g ai/ha, 0 to 100 scale): 20
- Foxtail, Green plant response rating (0-100) [13, 28]: 100
- Oat, Wild plant response rating ([14]; 16 g ai/ha, 0 to 100 scale): 0
- Oat, Wild plant response rating (0-100) [14, 28]: 20
- Wheat plant response rating ([15]; 16 g ai/ha, 0 to 100 scale): 50
- Wheat plant response rating (0-100) [15, 28]: 90
- Blackgrass plant response rating (0-100) [16, 29]: 90
- Blackgrass plant response rating (0 to 100 scale) [16, 30]: 80
- Ryegrass, Italian plant response rating (0-100) [17, 29]: 100
- Ryegrass, Italian plant response rating (0 to 100 scale) [17, 30]: 60
- Kochia plant response rating (0-100) [18, 29]: 80
- Kochia plant response rating (0 to 100 scale) [18, 30]: 70
- Ragweed plant response rating (0-100) [19, 29]: 70
- Ragweed plant response rating (0 to 100 scale) [19, 30]: 40
- Pigweed, Palmer plant response rating (0-100) [20, 29]: 90
- Pigweed, Palmer plant response rating (0 to 100 scale) [20, 30]: 80
- Soybean plant response rating (0-100) [21, 29]: 80
- Soybean plant response rating (0 to 100 scale) [21, 30]: 80
- Barnyardgrass plant response rating (0-100) [22, 29]: 100
- Barnyardgrass plant response rating (0 to 100 scale) [22, 30]: 100
- Corn plant response rating (0-100) [23, 29]: 100
- Corn plant response rating (0 to 100 scale) [23, 30]: 100
- Foxtail, Green plant response rating (0-100) [24, 29]: 90
- Foxtail, Green plant response rating (0 to 100 scale) [24, 30]: 70
- Horseweed plant response rating (0-100) [25, 29]: 80
- Horseweed plant response rating (0 to 100 scale) [25, 30]: 50
- Oat, Wild plant response rating (0-100) [26, 29]: 30
- Oat, Wild plant response rating (0 to 100 scale) [26, 30]: 30
- Wheat plant response rating (0-100) [27, 29]: 90
- Wheat plant response rating (0 to 100 scale) [27, 30]: 30

Source: patent US20260285850A1, “SUBSTITUTED OXAZOLIDINONES AND IMIDAZOLINONES AS HERBICIDES” (FMC CORPORATION, priority 2023, published 2026)
